# Experimental data: publication PMC10819771 (Pharmaceuticals, 2023)
# Read-outs that look alike come from different tables or passages of the source.
# What was measured:
# HeLa = experiment: MTT antiproliferative assay, HeLa; assay type: cell-based, human; details: MTT, 72 h, cervical cancer cells, read-out: IC50 Values (μM) ± SEM HeLa
# Method: (§1) The growth-inhibitory effects of the compounds were determined by MTT (3-(4,5-dimethylthiazol-2-yl)-2,5-diphenyltetrazolium bromide) assay on selected cell lines, including HeLa and SiHa (cervical cancers), MDA-MB-231 and MCF-7 (breast cancers), and A2780 ovarian cancer cells. All cell lines were purchased from the European Collection of Cell Cultures (Salisbury, UK) except SiHa, which was obtained from the American Tissue Culture Collection (Manassas, VA, USA). The cells were kept in minimum essential medium supplemented with 10% fetal bovine serum, 1% non-essential amino acids, and 1% penicillin-streptomycin-amphotericin-B at 37 °C in a humidified atmosphere containing 5% CO2. Media and supplements were obtained from Lonza Group Ltd., (Basel, Switzerland). Cancer cells were seeded onto 96-well plates (5000 cells/well), after an overnight incubation the test compounds were added in six concentrations (0.1, 0.3, 1.0, 3.0, 10.0, 30.0 µM) and incubated for 72 h under cell-culture condition. After the incubation, 20 μL of 5 mg/mL MTT solution was added to each well and incubated for a further 4 h. The medium was removed, and the precipitated formazan crystals were dissolved in DMSO for 30 min under shaking at 37 °C. The absorbance was measured at 545 nm with a microplate reader. Untreated cells were included as controls. Calculations were performed by means of the GraphPad Prism 5.01 software (GraphPad Software Inc., San Diego, CA, USA). At least two independent determinations were performed with 5 parallel wells for each condition.
# SiHa = experiment: MTT antiproliferative assay, SiHa; assay type: cell-based, human; details: MTT, 72 h, cervical cancer cells, read-out: IC50 Values (μM) ± SEM SiHa
# Method: as §1
# MCF-7 = experiment: MTT antiproliferative assay, MCF-7; assay type: cell-based, human; details: MTT, 72 h, breast cancer cells, read-out: IC50 Values (μM) ± SEM MCF-7
# Method: as §1
# MDA-MB-231 = experiment: MTT antiproliferative assay, MDA-MB-231; assay type: cell-based, human; details: MTT, 72 h, breast cancer cells, read-out: IC50 Values (μM) ± SEM MDA-MB-231
# Method: as §1
# A2780 = experiment: MTT antiproliferative assay, A2780; assay type: cell-based, human; details: MTT, 72 h, ovarian cancer cells, read-out: IC50 Values (μM) ± SEM A2780
# Method: as §1
# K562 = experiment: MTS cell proliferation assay, K562; assay type: cell-based, human; details: MTS, 3-day incubation, leukemia cells, read-out: IC50 Values (μM) ± SEM K562
# Method: The human leukemic cell line K562 was grown in RPMI 1640 medium (Life Technology-Invitrogen by Thermo Fisher Scientific, Saint-Aubin, France) supplemented with 10% fetal calf serum (FCS), antibiotics (100 U/mL penicillin, 100 µg/mL streptomycin), and L-glutamine, (Eurobio, Les Ulis, France) at 37 °C, 5% CO2 in air. The MTS cell proliferation assay (Promega, Charbonnières-les-Bains, France) is a colorimetric assay system, which measures the transformation of a tetrazolium component (MTS) into formazan produced by the mitochondria of viable cells. Cells were washed twice in PBS (Phosphate Buffer Saline) and plated in quadruplicate into microtiter-plate wells in 100 μL culture media with or without our various compounds at increasing concentrations (0, 1, 5, 10, 20, and 50 μM) for 1, 2, and 3 days. After 3 h of incubation at 37 °C with 20 μL MTS/well, the plates were read using an ELISA microplate reader (Thermo, Electrocorporation, Waltham, MA, USA) at 490 nm. The amount of color produced was directly proportional to the number of viable cells. The results are expressed as the concentrations inhibiting cell growth by 50% after a 3-day incubation period. The 50% cytotoxic concentrations (CC50) were determined by linear regression analysis, expressed in μM ± SD (Microsoft Excel).
# Fc-MYCT = experiment: FRET-melting, Fc-MYCT; assay type: binding; details: ligand 2 μM, DNA 0.2 μM, K+ conditions, pH 7.2
# Method: (§2) FRET-melting experiments were conducted on a Stratagene MX3005P (Thermo Fisher Scientific, Illkirch-Graffenstaden, France) real-time PCR equipment in 96-well plates on the DNA sequences reported in Table 4. Experiments were performed in 10 mM lithium cacodylate buffer (pH 7.2) and either 10 mM KCl and 90 mM LiCl (FK-RAST, FBCL-2T, F21T, and FdxT) or 1 mM KCl and 99 mM LiCl (Fc-MYCT) concentrations, depending on the Tm of the G4s alone. The DNA concentration was 0.2 µM. […] Data are presented as an average of three independent measurements, each conducted in duplicate conditions (λexc = 492 nm, λem = 516 nm, T interval = 25–95 °C, ramp: 25 °C for 5 min, then 1 °C/min, measurements every 1 °C, 8× magnification of the fluorescence signal).
# FK-RAST = experiment: FRET-melting, FK-RAST; assay type: binding; details: ligand 2 μM, DNA 0.2 μM, 10 mM KCl, 90 mM LiCl, pH 7.2
# Method: as §2
# FBCL-2T = experiment: FRET-melting, FBCL-2T; assay type: binding; details: ligand 2 μM, DNA 0.2 μM, 10 mM KCl, 90 mM LiCl, pH 7.2
# Method: as §2
# [1] = test system: human telomeric sequence F21T; experiment: FRET-melting, F21T; assay type: binding; details: ligand 2 μM, DNA 0.2 μM, 10 mM KCl, 90 mM LiCl, pH 7.2
# Method: as §2
# FdxT = experiment: FRET-melting, duplex control FdxT; assay type: binding; details: ligand 2 μM, DNA 0.2 μM, 10 mM KCl, 90 mM LiCl, pH 7.2, hairpin duplex
# Method: as §2
molecule,measurement,setting,value
"CN(C)CCCCNCc1ccc(-c2cc(-c3ccc(CNCCCCN(C)C)cc3)c3cc(-c4ccccc4)ccc3n2)cc1 [Compound 13b, 2,4-bis{4-[(4-dimethylaminobutyl)aminomethyl]phenyl}-6-phenylquinoline]",IC50,"HeLa; Homo sapiens, HeLa",3.58 ± 0.18 µM
same,IC50,"SiHa; Homo sapiens, SiHa",1.76 ± 0.61 µM
same,IC50,"MCF-7; Homo sapiens, MCF7, 72 h",3.03 ± 0.64 µM
same,IC50,"MDA-MB-231; Homo sapiens, MDA-MB-231, 72 h",3.68 ± 0.8 µM
same,IC50,"A2780; Homo sapiens, A2780",6.49 ± 1.76 µM
same,IC50,"K562; Homo sapiens, K562, 72 h",13 ± 0.4 µM
same,ΔT1/2 (°C) Fc-MYCT,Fc-MYCT,13.8 ± 3.0 °C
same,ΔT1/2 (°C) FK-RAST,FK-RAST,19.6 ± 3.5 °C
same,ΔT1/2 (°C) FBCL-2T,FBCL-2T,11.1 ± 2.6 °C
same,ΔT1/2 (°C) F21T,[1],13.6 ± 2.9 °C
same,ΔT1/2 (°C) FdxT,FdxT,1.5 ± 0.6 °C
"CN(C)CCCCNCc1ccc(-c2nc(-c3ccc(CNCCCCN(C)C)cc3)c3cccc(-c4ccccc4)c3n2)cc1 [Compound 12l, 2,4-bis{4-[(4-dimethylaminobutyl)aminomethyl]phenyl}-8-phenylquinazoline]",IC50,"HeLa; Homo sapiens, HeLa",1.39 ± 0.16 µM
same,IC50,"SiHa; Homo sapiens, SiHa",1.14 ± 0.51 µM
same,IC50,"MCF-7; Homo sapiens, MCF7, 72 h",1.45 ± 0.02 µM
same,IC50,"MDA-MB-231; Homo sapiens, MDA-MB-231, 72 h",1.55 ± 0.12 µM
same,IC50,"A2780; Homo sapiens, A2780",2.08 ± 0.48 µM
same,IC50,"K562; Homo sapiens, K562, 72 h",7 ± 0.2 µM
same,ΔT1/2 (°C) Fc-MYCT,Fc-MYCT,14.2 ± 1.1 °C
same,ΔT1/2 (°C) FK-RAST,FK-RAST,18.7 ± 0.8 °C
same,ΔT1/2 (°C) FBCL-2T,FBCL-2T,17.2 ± 1.2 °C
same,ΔT1/2 (°C) F21T,[1],24.9 ± 0.3 °C
same,ΔT1/2 (°C) FdxT,FdxT,2.9 ± 0.2 °C
"CN1CCN(CCCCNCc2ccc(-c3nc(-c4ccc(CNCCCCN5CCN(C)CC5)cc4)c4cccc(-c5ccccc5)c4n3)cc2)CC1 [Compound 12n, 2,4-bis{4-[(4-(4-methylpiperazin-1-yl)butyl)aminomethyl]phenyl}-8-phenylquinazoline]",IC50,"HeLa; Homo sapiens, HeLa",3.51 ± 0.17 µM
same,IC50,"SiHa; Homo sapiens, SiHa",1.89 ± 0.74 µM
same,IC50,"MCF-7; Homo sapiens, MCF7, 72 h",4.17 ± 0.5 µM
same,IC50,"MDA-MB-231; Homo sapiens, MDA-MB-231, 72 h",3.94 ± 0.54 µM
same,IC50,"A2780; Homo sapiens, A2780",7.1 ± 1.15 µM
same,IC50,"K562; Homo sapiens, K562, 72 h",14 ± 0.3 µM
same,ΔT1/2 (°C) Fc-MYCT,Fc-MYCT,17.0 ± 2.0 °C
same,ΔT1/2 (°C) FK-RAST,FK-RAST,18.0 ± 2.5 °C
same,ΔT1/2 (°C) FBCL-2T,FBCL-2T,12.0 ± 2.0 °C
same,ΔT1/2 (°C) F21T,[1],20.7 ± 3.1 °C
same,ΔT1/2 (°C) FdxT,FdxT,2.4 ± 0.7 °C
"CN(C)CCCCCNCc1ccc(-c2nc(-c3ccc(CNCCCCCN(C)C)cc3)c3ccc(-c4ccccc4)cc3n2)cc1 [Compound 12h, 2,4-bis{4-[(5-dimethylaminopentyl)aminomethyl]phenyl}-7-phenylquinazoline]",IC50,"HeLa; Homo sapiens, HeLa",2.31 ± 0.76 µM
same,IC50,"SiHa; Homo sapiens, SiHa",0.75 ± 0.01 µM
same,IC50,"MCF-7; Homo sapiens, MCF7, 72 h",1.19 ± 0.27 µM
same,IC50,"MDA-MB-231; Homo sapiens, MDA-MB-231, 72 h",1.1 ± 0.38 µM
same,IC50,"A2780; Homo sapiens, A2780",1.43 ± 0.07 µM
same,IC50,"K562; Homo sapiens, K562, 72 h",13 ± 0.2 µM
same,ΔT1/2 (°C) Fc-MYCT,Fc-MYCT,18.7 ± 0.2 °C
same,ΔT1/2 (°C) FK-RAST,FK-RAST,28.6 ± 2.1 °C
same,ΔT1/2 (°C) FBCL-2T,FBCL-2T,18.2 ± 1.7 °C
same,ΔT1/2 (°C) F21T,[1],28.1 ± 2.3 °C
same,ΔT1/2 (°C) FdxT,FdxT,2.7 ± 1.0 °C
"CN(C)CCCNCc1ccc(-c2nc(-c3ccc(CNCCCN(C)C)cc3)c3cccc(-c4ccccc4)c3n2)cc1 [Compound 12k, 2,4-bis{4-[(3-dimethylaminopropyl)aminomethyl]phenyl}-8-phenylquinazoline]",IC50,"HeLa; Homo sapiens, HeLa",1.19 ± 0.24 µM
same,IC50,"SiHa; Homo sapiens, SiHa",1.01 ± 0.27 µM
same,IC50,"MCF-7; Homo sapiens, MCF7, 72 h",1.12 to 1.24 µM
same,IC50,MCF-7,1.24 ± 0.14 µM
same,IC50,"MDA-MB-231; Homo sapiens, MDA-MB-231, 72 h",1.36 ± 0.06 µM
same,IC50,"A2780; Homo sapiens, A2780",1.34 ± 0.14 µM
same,IC50,"K562; Homo sapiens, K562, 72 h",7 ± 0.1 µM
same,ΔT1/2 (°C) Fc-MYCT,Fc-MYCT,9.9 ± 1.4 °C
same,ΔT1/2 (°C) FK-RAST,FK-RAST,13.0 ± 0.4 °C
same,ΔT1/2 (°C) FBCL-2T,FBCL-2T,9.5 ± 0.2 °C
same,ΔT1/2 (°C) FdxT,FdxT,0.8 ± 0.1 °C
"CN(C)CCCCNCc1ccc(-c2nc(-c3ccc(CNCCCCN(C)C)cc3)c3cc(-c4ccccc4)ccc3n2)cc1 [Compound 12c, 2,4-bis{4-[(4-dimethylaminobutyl)aminomethyl]phenyl}-6-phenylquinazoline]",IC50,"HeLa; Homo sapiens, HeLa",2.21 ± 0.86 µM
same,IC50,"SiHa; Homo sapiens, SiHa",0.76 ± 0.01 µM
same,IC50,"MCF-7; Homo sapiens, MCF7, 72 h",1.44 ± 0.03 µM
same,IC50,"MDA-MB-231; Homo sapiens, MDA-MB-231, 72 h",1.07 ± 0.42 µM
same,IC50,"A2780; Homo sapiens, A2780",2.04 ± 0.54 µM
same,IC50,"K562; Homo sapiens, K562, 72 h",7 ± 0.2 µM
same,ΔT1/2 (°C) Fc-MYCT,Fc-MYCT,17.7 ± 0.8 °C
same,ΔT1/2 (°C) FK-RAST,FK-RAST,24.5 ± 0.7 °C
same,ΔT1/2 (°C) FBCL-2T,FBCL-2T,16.4 ± 0.4 °C
same,ΔT1/2 (°C) F21T,[1],28.0 ± 0.4 °C
same,ΔT1/2 (°C) FdxT,FdxT,3.8 ± 0.8 °C
"CC1CN(CCCNCc2ccc(-c3cc(-c4ccc(CNCCCN5CCNC(C)C5)cc4)c4cc(-c5ccccc5)ccc4n3)cc2)CCN1 (stereo not shown) [Compound 13c, 2,4-bis{4-[(4-(3-methylpiperazin-1-yl)propyl)aminomethyl]phenyl}-6-phenylquinoline]",IC50,HeLa,1.3 ± 0.06 µM
same,IC50,SiHa,1.45 ± 0.13 µM
same,IC50,MCF-7,0.86 ± 0.38 µM
same,IC50,MDA-MB-231,1.33 ± 0.13 µM
same,IC50,A2780,1.58 ± 0.1 µM
same,IC50,K562,34 ± 0.7 µM
same,ΔT1/2 (°C) Fc-MYCT,Fc-MYCT,6.8 ± 1.4 °C
same,ΔT1/2 (°C) FK-RAST,FK-RAST,14.5 ± 0.8 °C
same,ΔT1/2 (°C) FBCL-2T,FBCL-2T,7.5 ± 0.5 °C
same,ΔT1/2 (°C) F21T,[1],11.3 ± 0.9 °C
same,ΔT1/2 (°C) FdxT,FdxT,0.1 ± 0.2 °C
"2,4-bis{4-[(4-(3-methylpiperazin-1-yl)propyl)aminomethyl]phenyl}-6-phenylquinazoline [Compound 12d]",IC50,HeLa,1.32 ± 0.02 µM
same,IC50,SiHa,1.28 ± 0.27 µM
same,IC50,MCF-7,1.01 ± 0.3 µM
same,IC50,MDA-MB-231,1.44 ± 0.17 µM
same,IC50,A2780,1.74 ± 0.11 µM
same,IC50,K562,17 ± 0.4 µM
same,ΔT1/2 (°C) Fc-MYCT,Fc-MYCT,8.4 ± 0.9 °C
same,ΔT1/2 (°C) FK-RAST,FK-RAST,15.5 ± 0.5 °C
same,ΔT1/2 (°C) FBCL-2T,FBCL-2T,9.7 ± 0.06 °C
same,ΔT1/2 (°C) F21T,[1],15.8 ± 1.2 °C
same,ΔT1/2 (°C) FdxT,FdxT,0.5 ± 0.3 °C
